Test results: paper PMC6446940 (ChemMedChem, 2018)

What was measured:
[1] = target: HIV-1 Reverse Transcriptase (RT) (Human immunodeficiency virus type 1 group M subtype B, UniProt P04585); experiment: biochemical; assay type: biochemical
Cytotoxicity [2] = assay type: cell-based, human; details: human, MT-2 cells, MT-2 CC50, MT-2 cells, MTS; mean ± SD, n=3
Cytotoxicity [3] = assay type: cell-based; details: human, TZM-bl cells, TZMb-l CC50, TZM-bl cells, 3 days, MTS; mean ± SD, n=3
pseudovirus HIV-1HXB2 = experiment: Single-cycle infection assay in TZM-bl cells; details: for antiviral activity (in words): SAR discussion of Table 1
HIV-1IIIB = experiment: Multi-cycle infection assay in MT-2 cells; assay type: cell-based; details: read-out: MT-2 IC50, p24, mean ± SD, n=3
MT-2 cells = experiment: Cytotoxicity; assay type: cell-based, human; details: read-out: MT-2 CC50, MTS, mean ± SD, n=3
TZM-bl cells = experiment: Cytotoxicity; assay type: cell-based; details: for CC50: read-out: TZMb-l CC50, TZM-bl cells, 3 days, MTS, mean ± SD, n=3; for cytotoxicity higher compared with the parent compounds: compared with NBD-14122 / NBD-14123; for cytotoxicity became higher: di-fluoro at position 2 of 1,3-benzodioxole, versus non-fluorinated compounds

Structure (SMILES) | CC50 at 4 days (Cytotoxicity [2]) [µM] | CC50 at 3 days (Cytotoxicity [3]) [µM] | IC50 (HIV-1IIIB) [µM] | CC50 (MT-2 cells) [µM] | CC50 (TZM-bl cells) [µM] | also measured
CC1(C)CC(NC(=O)C(=O)Nc2ccc(Cl)cc2)CC(C)(C)N1 [NBD-556, reference compound] | – | – | – | – | – | IC50 ([1]; HIV-1 Reverse Transcriptase, mean ± SD, n=3): > 300 µM; activity against HIV-1 RT ([1]; at 300 μM): no activity
Cc1nc(C(CN)NC(=O)C(=O)Nc2ccc3c(c2)OCO3)sc1CO (stereo not drawn) [NBD-14108, N1-(2-amino-1-(5-(hydroxymethyl)-4-methylthiazol-2-yl)ethyl)-N2-(benzo[d][1,3]dioxol-5-yl)oxalamide] | ≥ 650 | ≥ 750 | – | – | – | antiviral activity (in words) (pseudovirus HIV-1HXB2): completely lost
Cc1nc(C(CN)NC(=O)c2ccc(-c3ccc4c(c3)OCO4)[nH]2)sc1CO (stereo not drawn) [NBD-14111, N-(2-amino-1-(5-(hydroxymethyl)-4-methylthiazol-2-yl)ethyl)-5-(benzo[d][1,3]dioxol-5-yl)-1H-pyrrole-2-carboxamide] | – | – | 9.8 ± 4.8 | 170 ± 9 | 146 ± 5.2 | antiviral activity (in words) (pseudovirus HIV-1HXB2): lost its antiviral activity
Cc1nc(C(NC(=O)c2ccc(-c3ccc4c(c3)OCO4)[nH]2)C(C)(C)N)sc1CO (stereo not drawn) [NBD-14116, N-(2-amino-1-(5-(hydroxymethyl)-4-methylthiazol-2-yl)-2-methylpropyl)-5-(benzo[d][1,3]dioxol-5-yl)-1H-pyrrole-2-carboxamide] | 98 ± 2.2 | 55.2 ± 5.4 | – | – | – | –
Cc1nc(C(NC(=O)c2ccc(-c3ccc4c(c3)OCO4)[nH]2)C(C)(C)N)sc1CO (stereo not drawn) [NBD-14117, N-(2-amino-1-(5-(hydroxymethyl)-4-methylthiazol-2-yl)-2-methylpropyl)-5-(benzo[d][1,3]dioxol-5-yl)-1H-pyrrole-2-carboxamide] | – | – | 2.5 ± 1 | 98 ± 1.5 | 66.9 ± 1.4 | –
CC(C)(N)C(NC(=O)c1ccc(-c2ccc3c(c2)OCO3)[nH]1)c1ncc(CO)s1 (stereo not drawn) [NBD-14118, N-(2-amino-1-(5-(hydroxymethyl)thiazol-2-yl)-2-methylpropyl)-5-(benzo[d][1,3]dioxol-5-yl)-1H-pyrrole-2-carboxamide] | 123 ± 10.5 | 64.3 ± 3.7 | – | – | – | –
CC(C)(N)C(NC(=O)c1ccc(-c2ccc3c(c2)OCO3)[nH]1)c1ncc(CO)s1 (stereo not drawn) [NBD-14119, N-(2-amino-1-(5-(hydroxymethyl)thiazol-2-yl)-2-methylpropyl)-5-(benzo[d][1,3]dioxol-5-yl)-1H-pyrrole-2-carboxamide] | – | – | 2.8 ± 0.9 | 106 ± 4.4 | 69.2 ± 3.8 | improvement in antiviral activity/potency compared with NBD-14123 (pseudovirus HIV-1HXB2): ~ 2.3 fold
NCC(NC(=O)c1ccc(-c2ccc3c(c2)OCO3)[nH]1)c1ncc(CO)s1 (stereo not drawn) [NBD-14122, N-(2-amino-1-(5-(hydroxymethyl)thiazol-2-yl)ethyl)-5-(benzo[d][1,3]dioxol-5-yl)-1H-pyrrole-2-carboxamide] | – | – | 5.1 ± 0.4 | 183 ± 3 | 154.4 ± 1.5 | –
NCC(NC(=O)c1ccc(-c2ccc3nsnc3c2)[nH]1)c1ncc(CO)s1 (stereo not drawn) [NBD-14126, N-(2-amino-1-(5-(hydroxymethyl)thiazol-2-yl)ethyl)-5-(benzo[c][1,2,5]thiadiazol-5-yl)-1H-pyrrole-2-carboxamide] | 117 ± 4.3 | 79.9 ± 1 | – | – | – | cytotoxicity higher compared with the parent compounds (TZM-bl cells): about 1.5 fold; improvement in antiviral activity compared with NBD-14122 (pseudovirus HIV-1HXB2): about 2.8 fold
NCC(NC(=O)c1ccc(-c2ccc3nsnc3c2)[nH]1)c1ncc(CO)s1 (stereo not drawn) [NBD-14127, N-(2-amino-1-(5-(hydroxymethyl)thiazol-2-yl)ethyl)-5-(benzo[c][1,2,5]thiadiazol-5-yl)-1H-pyrrole-2-carboxamide] | – | – | 7.3 ± 1.5 | 137 ± 1.5 | 96.7 ± 2.9 | cytotoxicity higher compared with the parent compounds (TZM-bl cells): about 1.5 fold; improvement in antiviral activity/potency compared with NBD-14123 (pseudovirus HIV-1HXB2): ~ 1.6 fold
CC1(C)Oc2ccc(-c3ccc(C(=O)NC(CN)c4ncc(CO)s4)[nH]3)cc2O1 (stereo not drawn) [NBD-14133, N-(2-amino-1-(5-(hydroxymethyl)thiazol-2-yl)ethyl)-5-(2,2-dimethylbenzo[d][1,3]dioxol-5-yl)-1H-pyrrole-2-carboxamide] | 96.5 ± 1.2 | 64 ± 1.2 | – | – | – | antiviral activity (in words) (pseudovirus HIV-1HXB2): lost their antiviral potency
CC1(C)Oc2ccc(-c3ccc(C(=O)NC(CN)c4ncc(CO)s4)[nH]3)cc2O1 (stereo not drawn) [NBD-14134, N-(2-amino-1-(5-(hydroxymethyl)thiazol-2-yl)ethyl)-5-(2,2-dimethylbenzo[d][1,3]dioxol-5-yl)-1H-pyrrole-2-carboxamide] | – | – | 15.3 ± 5 | 89.3 ± 1.3 | 61.1 ± 1.4 | antiviral activity (in words) (pseudovirus HIV-1HXB2): lost their antiviral potency
CNCC(NC(=O)c1ccc(-c2ccc3c(c2)OCO3)[nH]1)c1ncc(CO)s1 (stereo not drawn) [NBD-14139, 5-(benzo[d][1,3]dioxol-5-yl)-N-(1-(5-(hydroxymethyl)thiazol-2-yl)-2-(methylamino)ethyl)-1H-pyrrole-2-carboxamide] | 178 ± 8 | 149 ± 11.3 | – | – | – | –
CNCC(NC(=O)c1ccc(-c2ccc3c(c2)OCO3)[nH]1)c1ncc(CO)s1 (stereo not drawn) [NBD-14140, 5-(benzo[d][1,3]dioxol-5-yl)-N-(1-(5-(hydroxymethyl)thiazol-2-yl)-2-(methylamino)ethyl)-1H-pyrrole-2-carboxamide] | – | – | 9.32 ± 2.8 | 173 ± 8 | 153 ± 11.5 | –
NCC(NC(=O)c1ccc(-c2ccc3c(c2)OC(F)(F)O3)[nH]1)c1ncc(CO)s1 (stereo not drawn) [NBD-14144, N-(2-amino-1-(5-(hydroxymethyl)thiazol-2-yl)ethyl)-5-(2,2-difluorobenzo[d][1,3]dioxol-5-yl)-1H-pyrrole-2-carboxamide] | 43.4 ± 3.6 | 37.9 ± 2.4 | – | – | – | cytotoxicity became higher (TZM-bl cells): ~ 3.9 fold; improvement in antiviral activity compared with NBD-14122 (pseudovirus HIV-1HXB2): ~ 4.5 fold
NCC(NC(=O)c1ccc(-c2ccc3c(c2)OC(F)(F)O3)[nH]1)c1ncc(CO)s1 (stereo not drawn) [NBD-14145, N-(2-amino-1-(5-(hydroxymethyl)thiazol-2-yl)ethyl)-5-(2,2-difluorobenzo[d][1,3]dioxol-5-yl)-1H-pyrrole-2-carboxamide] | – | – | 3.1 ± 0.5 | 41 ± 2.7 | 38.7 ± 1.3 | cytotoxicity became higher (TZM-bl cells): ~ 3.9 fold; improvement in antiviral activity (pseudovirus HIV-1HXB2; di-fluoro at position 2 of 1,3-benzodioxole, comparator not stated): ~ 1.7 fold
CNCC(NC(=O)c1ccc(-c2ccc3c(c2)OCO3)[nH]1)c1nc(CO)cs1 (stereo not drawn) [NBD-14158, 5-(benzo[d][1,3]dioxol-5-yl)-N-(1-(4-(hydroxymethyl)thiazol-2-yl)-2-(methylamino)ethyl)-1H-pyrrole-2-carboxamide] | 192 ± 4.2 | 157 ± 7.8 | 9.5 ± 0.5 | – | – | –
NCC(NC(=O)c1ccc(-c2ccc3c(c2)OCO3)[nH]1)c1nc(CO)cs1 (stereo not drawn) [NBD-14172, N-(2-amino-1-(4-(hydroxymethyl)thiazol-2-yl)ethyl)-5-(benzo[d][1,3]dioxol-5-yl)-1H-pyrrole-2-carboxamide] | 156 ± 14.3 | 92.3 ± 2.9 | 2.4 ± 0.3 | – | – | improvement in antiviral activity/potency compared with NBD-14123 (pseudovirus HIV-1HXB2): about 1.5 fold
NCC(NC(=O)c1ccc(-c2ccc3c(c2)OCO3)[nH]1)c1nc(CO)cs1 (stereo not drawn) [NBD-14173, N-(2-amino-1-(4-(hydroxymethyl)thiazol-2-yl)ethyl)-5-(benzo[d][1,3]dioxol-5-yl)-1H-pyrrole-2-carboxamide] | – | – | 8.2 ± 2.7 | 176 ± 4.3 | 105 ± 7.9 | –
